Source: patent publication US20070218002A1, “Method for Detecting Alzheimer's Disease and other Forms of Dementia, and Measuring Their Progression” (priority 2004, published 2007)
Several values for one entry are separate records, joined by “and”; a condition that tells them apart may be missing. Equal entries are not always repeated.

Key:
glucose metabolism = test: [F-18]FDG PET, relative standardized uptake value; format: in vivo, human; settings: normalized to motor cortex
Method: (§1) All scans were performed with ECAT HR or ECAT HR+ scanners (Siemens-CTI, Knoxville, Tenn.). The subjects were in the supine position with the imaging plane parallel to the orbito-meatal line and with their eyes open and ears unoccluded. A 20 min transmission scan was performed to correct PET data for radiation attenuation. 320-550 MBq of a PET tracer was injected as a bolus injection via the in-dwelling venous catheter, and the consecutive dynamic head PET scans were performed for 1 hour with [F-18]FDG or for 2 hours with [F-18]MPPF or with [F-18]FDDNP.
(§2) All PET scans were decay corrected and reconstructed using filtered-back projection (Hann filter, 5 mm FWHM) with scatter and attenuation correction. The resulting images contained either 47 contiguous slices with 3.4 mm plane-to-pane separation (EXACT HR) or 63 contiguous slices with the plane-to-plane separation of 2.42 mm (EXACT HR+).
The dynamic [F-18]FDG PET images were summed (frames 30-60min) and the resulting image was used for the following analysis: ROIs were drawn bilaterally on transaxially oriented images on the gray matter signal in the frontal lobe, parietal lobe, lateral temporal lobe, and medial temporal lobe. In addition, one ROI was drawn on the posterior cingulated gyrus. ROIs were also drawn bilaterally on the motor cortex as a reference region. Values for each ROI were extracted and relative standardized uptake values were calculated for each region separately. The average of both ROIs from the same region was divided by the average of ROI values for the motor cortex. In a similar way, the ROI value for the posterior cingulated gyrus was normalized by the average value for motor cortex. Finally the global [F-18]FDG SUVR index was calculated for the parietal, medial temporal, and lateral temporal lobes.

5-HT1A receptors = biological target: T1, 5-HT1A receptors (Homo sapiens, UniProt P08908); test: In vitro [F-18]MPPF digital autoradiography on whole-hemisphere brain cryosections; format: binding
T1 construct: Glass mounted whole-hemisphere brain cryosections (100 μm thick), cut at the level of hippocampus; from tissue; host or cells: post-mortem human brain, whole-hemisphere cryosections at the level of the hippocampus
T1 sequence (P08908 1-422): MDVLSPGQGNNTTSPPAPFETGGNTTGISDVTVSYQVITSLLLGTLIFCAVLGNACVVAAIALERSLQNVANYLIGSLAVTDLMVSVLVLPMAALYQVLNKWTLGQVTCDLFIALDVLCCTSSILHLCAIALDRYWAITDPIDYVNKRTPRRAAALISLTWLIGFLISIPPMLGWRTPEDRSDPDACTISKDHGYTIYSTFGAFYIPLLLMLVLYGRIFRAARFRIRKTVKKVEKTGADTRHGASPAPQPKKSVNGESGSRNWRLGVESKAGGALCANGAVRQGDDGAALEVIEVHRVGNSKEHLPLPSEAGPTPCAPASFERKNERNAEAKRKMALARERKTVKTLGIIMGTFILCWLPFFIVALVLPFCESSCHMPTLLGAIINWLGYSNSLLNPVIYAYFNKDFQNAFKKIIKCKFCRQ

[1] = biological target: T2, serotonin 5-HT1A receptors (Homo sapiens, UniProt P08908); test: [F-18]MPPF PET, Logan plot quantitation of binding potential; format: in vivo
T2 construct: from tissue; host or cells: living human brain (in vivo PET; hippocampus, raphe nuclei, cortical regions)
T2 sequence (P08908 1-422): T1 sequence (P08908 1-422)
Method: as §1, §2
Anatomical brain magnetic resonance scans were obtained using either a 1.5 Tesla magnet (General Electric-Signa, Milwaukee, Wis.) or a 3 Tesla magnet (General Electric-Signa) scanner. […] A double echo, fast spin echo series using a 24-cm field of view and 256×256 matrix with 3 mm/0 gap (TR=6000 [3T] and 2000 [1.5T]; TE=17/85 [3T] and 30/90 [1.5T]) An inter-modality image co-registration program (7) that uses image segmentation and simulation as preprocessing procedures was used to co-register PET and anatomical MRI images of each subject. Rules for ROI drawing were based on the identification of gyral and sulcal landmarks with respect to the atlas of Talairach and Tournoux (8).
Quantitation of [F-18]MPPF binding was performed using Logan plot graphical analysis, using the cerebellum, an area largely devoid of 5-HT1A receptors, as the reference region (9). […] Tracer binding potential (BP=Bmax/Kd) parametric images were analyzed using ROIs drawn bilaterally on hippocampus, lateral temporal lobe, parietal lobe, frontal lobe, and posterior cingulate cortex, and a single ROI on the dorsal raphe nucleus using MRI as a guide. Total binding potentials (BPT, BPT=BP×volume) were determined for left and right hippocampus by multiplying the hippocampal BP values with the hippocampus volumes on co-registered MRI.

[2] = AD subjects compared to control subjects

## OC[C@H]1OC(O)[C@H]([18F])[C@@H](O)[C@@H]1O (stereo partly drawn) [[F-18]FDG, 2-deoxy-2-[F-18]fluoro-D-glucose]
Glucose metabolism; AD group
  FDG mean SUVR ± 1 SD, Frontal Lobe: 0.79 ± 0.07
  FDG mean SUVR ± 1 SD, Global: 0.66 ± 0.04
  FDG mean SUVR ± 1 SD, Lateral Temporal Lobe: 0.66 ± 0.07
  FDG mean SUVR ± 1 SD, Medial Temporal Lobe: 0.66 ± 0.04
  FDG mean SUVR ± 1 SD, Parietal Lobe: 0.67 ± 0.09
  FDG mean SUVR ± 1 SD, Posterior Cingulate Gyrus: 0.79 ± 0.11
Glucose metabolism; CTRL group
  FDG mean SUVR ± 1 SD, Frontal Lobe: 0.95 ± 0.08
  FDG mean SUVR ± 1 SD, Global: 0.80 ± 0.04
  FDG mean SUVR ± 1 SD, Lateral Temporal Lobe: 0.86 ± 0.06
  FDG mean SUVR ± 1 SD, Medial Temporal Lobe: 0.73 ± 0.02
  FDG mean SUVR ± 1 SD, Parietal Lobe: 0.89 ± 0.06
  FDG mean SUVR ± 1 SD, Posterior Cingulate Gyrus: 1.05±0.09
Glucose metabolism; CTRL group, listed as FDG
  FDG mean SUVR ± 1 SD, Posterior Cingulate Gyrus: 1.05 ± 0.09
Glucose metabolism; MCI group
  FDG mean SUVR ± 1 SD, Frontal Lobe: 0.90 ± 0.02
  FDG mean SUVR ± 1 SD, Global: 0.77 ± 0.04
  FDG mean SUVR ± 1 SD, Lateral Temporal Lobe: 0.81 ± 0.05
  FDG mean SUVR ± 1 SD, Medial Temporal Lobe: 0.69 ± 0.03
  FDG mean SUVR ± 1 SD, Parietal Lobe: 0.84 ± 0.05
  FDG mean SUVR ± 1 SD, Posterior Cingulate Gyrus: 0.89±0.06
Glucose metabolism; MCI group, listed as FDG
  FDG mean SUVR ± 1 SD, Posterior Cingulate Gyrus: 0.89 ± 0.06

## COc1ccccc1N1CCN(CCN(C(=O)c2ccc([18F])cc2)c2ccccn2)CC1 [[F-18]MPPF, 4-[F-18]fluoro-N-{2-[1-(2-methoxyphenyl)-piperazinyl]ethyl}-N-(2-pyridinyl)benzamide]
5-HT1A receptors; AD cases (individual)
  binding ratio (BR), outer layers of gray matter in the inferior temporal gyrus: 1.13 and 1.16
5-HT1A receptors; AD samples (individual)
  hippocampal binding ratio (BR), CA1 field/subiculum relative to inner layer of inferior temporal gyrus gray matter: 1.03 and 1.18
5-HT1A receptors; AD vs control samples
  drop in in vitro binding, hippocampus: 60-70%
5-HT1A receptors; control samples (individual)
  hippocampal binding ratio (BR), CA1 field/subiculum relative to inner layer of inferior temporal gyrus gray matter: 3.29 and 3.00 and 2.98
5-HT1A receptors; non-demented cases (individual)
  binding ratio (BR), outer layers of gray matter in the inferior temporal gyrus: 1.46 and 1.40 and 2.01
[1]; AD
  hippocampus total binding potential (BPT=BP×volume): 2.24±0.61
[1]; AD group
  [F-18]MPPF mean BP ± 1 SD, Frontal Lobe: 0.41 ± 0.13
  [F-18]MPPF mean BP ± 1 SD, Lateral Temporal Lobe: 0.73 ± 0.16
  [F-18]MPPF mean BP ± 1 SD, Parietal Lobe: 0.48 ± 0.13
  [F-18]MPPF mean BP ± 1 SD, Posterior Cingulate Gyrus: 0.56 ± 0.20
[1]; AD patients in general
  MPPF accumulation in the hippocampi: ≤ 50%
[1]; [2]
  drop in dorsal raphe nucleus BP values: 41%
  drop in hippocampus BP values: 27%
[1]; ADs
  hippocampus BPT lower compared with controls: 49%
[1]; Control group
  [F-18]MPPF mean BP ± 1 SD, Frontal Lobe: 0.49 ± 0.15
  [F-18]MPPF mean BP ± 1 SD, Hippocampus: 1.62±0.07
  [F-18]MPPF mean BP ± 1 SD, Lateral Temporal Lobe: 0.82 ± 0.17
  [F-18]MPPF mean BP ± 1 SD, Parietal Lobe: 0.63 ± 0.15
  [F-18]MPPF mean BP ± 1 SD, Posterior Cingulate Gyrus: 0.68 ± 0.06
  [F-18]MPPF mean BP ± 1 SD, Raphe Nuclei: 0.63±0.09
[1]; MCI
  hippocampus total binding potential (BPT=BP×volume): 3.14±0.34
[1]; MCI group
  [F-18]MPPF mean BP ± 1 SD, Frontal Lobe: 0.44 ± 0.12
  [F-18]MPPF mean BP ± 1 SD, Lateral Temporal Lobe: 0.80 ± 0.11
  [F-18]MPPF mean BP ± 1 SD, Parietal Lobe: 0.43 ± 0.11
  [F-18]MPPF mean BP ± 1 SD, Posterior Cingulate Gyrus: 0.56 ± 0.12
  [F-18]MPPF mean BP ± 1 SD, Raphe Nuclei: 0.52 ± 0.11
[1]; MCI subjects
  mean hippocampus BP value lower than in controls: 13%
[1]; MCIs
  hippocampus BPT lower compared with controls: 24%
[1]; controls
  hippocampus total binding potential (BPT=BP×volume): 4.40±0.22
